Laboratory results published in BigSolDB 2.1.

O=C(NC(=O)c1c(F)cccc1F)Nc1cc(Cl)c(F)c(Cl)c1F
solubility (mole fraction)
Settings | 278.15 K | 283.15 K | 288.15 K | 293.15 K | 298.15 K | 303.15 K | 308.15 K | 313.15 K | 318.15 K | 323.15 K
in DMF | 0.174 | 0.186 | 0.2 | 0.213 | 0.228 | 0.243 | 0.26 | 0.275 | 0.292 | 0.308
in ethanol | 0.0485 | 0.0515 | 0.0549 | 0.0582 | 0.0614 | 0.0647 | 0.0676 | 0.0708 | 0.0744 | 0.0782
in methanol | 0.0672 | 0.0729 | 0.0792 | 0.0854 | 0.0925 | 0.1 | 0.108 | 0.116 | 0.124 | 0.133
in propylene glycol | 0.0199 | 0.0212 | 0.0227 | 0.0241 | 0.0255 | 0.0269 | 0.0282 | 0.0296 | 0.0311 | 0.0327
in water | 6.82e-06 | 7.49e-06 | 8.19e-06 | 8.88e-06 | 9.72e-06 | 1.07e-05 | 1.17e-05 | 1.26e-05 | 1.36e-05 | 1.47e-05
